# Paper PMC12385910, “The Functional Characterization of an AA10 Lytic Polysaccharide Monooxygenase from Saccharophagus degradans 2-40^T for Enhanced Chitin Biodegradation” (Foods, 2025)
# Target: T1, SdLPMO10A (Saccharophagus degradans, UniProt Q21N34)
# T1 construct: gene cbpA; AA10 catalytic domain plus CBM2; native signal peptide (24 residues) replaced by pelB, pET-26b(+), E. coli BL21(DE3) periplasm, Ni-NTA purified; N-terminal His25; Cu2+-saturated
# Assay: MALDI-TOF MS of oxidized chitin oligosaccharides
# Assay type: biochemical
# Settings: electron donor, 1 mM; 10 µM Cu2+-saturated enzyme; alpha-chitin; 20 mM Tris-HCl pH 8.0, 30 °C, 48 h
# T1 sequence (Q21N34 entry or part of it): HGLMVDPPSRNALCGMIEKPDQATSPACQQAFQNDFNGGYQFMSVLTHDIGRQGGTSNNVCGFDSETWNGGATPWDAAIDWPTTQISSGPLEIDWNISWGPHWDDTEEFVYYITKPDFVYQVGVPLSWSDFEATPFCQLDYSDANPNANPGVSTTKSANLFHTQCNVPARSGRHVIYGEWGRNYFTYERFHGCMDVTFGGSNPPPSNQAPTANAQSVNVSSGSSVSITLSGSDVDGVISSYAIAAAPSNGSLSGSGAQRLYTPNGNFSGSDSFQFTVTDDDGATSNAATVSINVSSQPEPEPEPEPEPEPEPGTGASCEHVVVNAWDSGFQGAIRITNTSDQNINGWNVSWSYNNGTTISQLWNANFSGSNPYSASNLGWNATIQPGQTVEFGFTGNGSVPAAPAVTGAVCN
smiles,measurement,value
O=C1O[C@H]([C@@H](O)CO)C(O)=C1O [ascorbic acid],MALDI-TOF MS of oxidized chitin oligosaccharides,"lacking SdLPMO10A or ascorbic acid, no discernible quantity of oxidized chitin oligosaccharides was generated"
